Consider three molecules from patent US20050059645A1, “Methods for the treatment of male and female sexual dysfunction” (priority 2003, published 2005).

Where two headings read alike, the source gives them in different places.

The conditions of data set [1]: estradiol itself, postmenopausal volunteer; cited from earlier work.
For data set [2] the following is noted: cited from earlier work.
Data set [3] has as its system castrated male rats. The following applies: cited from earlier work.
Data set [4] relates to LH. Kind of data set: Plasma LH by radioimmunoassay in ovariectomized female rats. Type of data set: in vivo, rat. The following applies: 0.003, 0.01 and 0.03 mg/kg i.v. daily for 5 days. On the procedure:
(§1) After recovery from surgery, ovariectomized female rats were divided into four groups and treated once a day for five days intravenously, via a bolus injection through the tail vein, as follows: (1) control, 27% HPβCD solution; (2) 0.003 mg/kg E2-CDS dissolved in 27% HPβCD solution; (3) 0.01 mg/kg E2-CDS dissolved in 27% HPβCD solution; and (4) 0.03 mg/kg E2-CDS dissolved in 27% HPβCD solution. A minimal number of ovariectomized (8 to 12) females were used per group. Intravenous treatments either with E2-CDS or HPβCD (controls) were carried out daily for 5 days beginning 2 days prior to the first day of behavior observations, in a volume of 0.05 ml/100 g body weight.
An experienced and active male rat was placed in the arena 5 minutes prior to the female. […] The lordosis quotient (LQ) expresses the estrogen effect on sexual receptivity and was calculated as follows: LQ=100×number of lordoses/10 mounts The observation of the sexual behavior of each female was carried out, in the case of E2-CDS, every day for 22 days; in the case of EB, investigations were carried out every day for 10 days. […] Citrated blood samples were taken by retro-orbital sinus puncture under light ether anesthesia. […] Plasma LH concentrations from individual samples were measured by double antibody radioimmunoassay kits obtained from Amersham Pharmacia Biotech, Rome, Italy. […]

In data set [5] the test system is ovariectomized female rats. Kind of data set: Lordosis behavior test (lordosis quotient) in ovariectomized female rats. It counts as in vivo, rat. Here is the method:
Thus, lordosis was selected as an indicator of restoration of female sexual function in ovariectomized female rats and an appropriate indicator for alleviating symptoms of female sexual dysfunction.
Adult female Sprague Dawley rats (220-250 g) from Charles River Hungary Ltd., Godollo, Hungary, were used. Animals were kept in community cages (4 animals/cage) in a climate-controlled room (23±2° C., 50-60% humidity), with a 14 hour light, 10 hour dark cycle of artificial lighting, using reversed light/dark cycle. Food and water were available ad libitum.
After a minimum five-day acclimatization period, animals were ovariectomized under ether anesthesia, then were left to recover for 3 weeks before testing (reconvalescence). All animals were treated in accordance with the guidelines of the European Communities Council Directive (86/609/EEC) and studies were permitted by the Institutional Animal Care Commission.
Estradiol benzoate and progesterone were obtained from Sigma Chemical Co. Inc., Budapest, Hungary. […] E2-CDS as a 3% complex with HPβCD (E2-CDS-CD) was dissolved in distilled water and diluted with 27% HPβCD solution. E2-CDS-CD was synthesized by Alchem Laboratories Corporation, Alachua, Fla., US.
as §1
The behavior test was conducted in a plexiglass observation cage during the dark cycle. During behavioral observations, only a dim red light was on.
An experienced and active male rat was placed in the arena 5 minutes prior to the female. […] The lordosis quotient (LQ) expresses the estrogen effect on sexual receptivity and was calculated as follows: LQ=100×number of lordoses/10 mounts The observation of the sexual behavior of each female was carried out, in the case of E2-CDS, every day for 22 days; in the case of EB, investigations were carried out every day for 10 days. […] Citrated blood samples were taken by retro-orbital sinus puncture under light ether anesthesia. The samples were stored at 4° C. for one hour, then centrifuged at 1000 g for 10 minutes. Plasma was separated and stored at −80° C. until assayed. Plasma LH concentrations from individual samples were measured by double antibody radioimmunoassay kits obtained from Amersham Pharmacia Biotech, Rome, Italy. […] The limit of detection was 15 pg/ml.
Behavioral changes were analyzed using the Mann-Whitney U test (Siegel, Nonparametric Statistics for the Behavioral Sciences, New York; McGraw-Hill Book Company, Inc., 1956). The Fisher exact test was used for percentage comparisons (Zar, Biostatistical Analysis, Prentice Hall, Inc., Englewood Cliffs, N.J., 1974). Serum LH data were analyzed for each time and treatment group by analysis of variance (ANOVA) followed by Bonferroni posthoc test.

Setting [6] is: 0.01 mg/kg i.v. once a day for 5 days.
Setting [7] is: 0.03 mg/kg i.v. once a day for 5 days.

In the case of `C[C@]12CC[C@@H]3c4ccc(O)cc4CC[C@H]3[C@@H]1CC[C@@H]2O` [estradiol], the “initial serum estradiol level” value in data set [1] is recorded as “too high to calculate with the standard curve”.

Take `C[C@]12CC[C@H]3[C@@H](CCC4=CC(=O)CC[C@@]43C)[C@@H]1CC[C@@H]2O` [testosterone]: the “estradiol formed (of recovered steroids)” value in data set [2] (amygdala (Michael 1986)) was 64%; in data set [2] (hypothalamus (Michael 1986)), 61%; in data set [2] (preoptic area (Michael 1986)), 43%. In data set [2] (hypothalamus, preoptic area and amygdala (Bonsall 1983)), the “radioactivity reported to be estradiol” value is at least 50%.

`C[C@]12CC[C@@H]3c4ccc(OC(=O)c5ccccc5)cc4CC[C@H]3[C@@H]1CC[C@@H]2O` [estradiol benzoate]: the masculine sexual behavior entry in data set [3] (10 μg/day systemically for 9 to 11 days (Pfaff 1970)) is “increased mounting, intromissions and ano-genital sniffing and reduced mounting latency”. Also, in data set [3] (100 μg/day for 24 to 28 days (Sodersten 1973)), the ejaculations result is listed as “less affected by estradiol benzoate then by testosterone propionate”. The mounts and intromissions result in data set [3] (100 μg/day for 24 to 28 days, rats castrated 6 weeks previously (Sodersten 1973)) was “equivalent to those observed following similar treatment with testosterone propionate”. In addition, the “plasma LH levels, effect” value in data set [4] was “none of the tested dosages of estradiol benzoate gave statistically significant LH suppression”. Besides, the “lordosis quotient, effect” value in data set [5] (0.003 mg/kg i.v. once a day for 5 days) was “slightly enhanced the lordosis quotient, but these effects were not statistically significant”. Moreover, in data set [5] (setting [6]), the “LQ increase compared to E2-CDS” value was “about 3 times less”; the “lordosis quotient LQ, effect” value is “slightly increased the LQ from day 3 to day 10”; the “statistical significance of LQ increase” value is given as “not statistically significant”. In data set [5] (setting [7]), the “LQ value relative to E2-CDS” value is recorded as “about three times lower”; the “duration of LQ enhancement” value is “from day 3 to day 8”; the “lordosis quotient LQ, effect” value is “significantly enhanced”.
